Drawing on patent US12171756B2, “NLRP3 modulators” (Innate Tumor Immunity, Inc., priority 2017, dated 2024), this text covers EC50 and IC50 for 27 compounds.

The target of one experiment is T1, human TLR8 (Homo sapiens, UniProt Q9NR97).
T1 construct: host or cells: human HEK-Blue cells (HEK293-derived) co-expressing TLR8 and an NF-kB/AP1-inducible SEAP reporter
T1 sequence (Q9NR97 27-1041): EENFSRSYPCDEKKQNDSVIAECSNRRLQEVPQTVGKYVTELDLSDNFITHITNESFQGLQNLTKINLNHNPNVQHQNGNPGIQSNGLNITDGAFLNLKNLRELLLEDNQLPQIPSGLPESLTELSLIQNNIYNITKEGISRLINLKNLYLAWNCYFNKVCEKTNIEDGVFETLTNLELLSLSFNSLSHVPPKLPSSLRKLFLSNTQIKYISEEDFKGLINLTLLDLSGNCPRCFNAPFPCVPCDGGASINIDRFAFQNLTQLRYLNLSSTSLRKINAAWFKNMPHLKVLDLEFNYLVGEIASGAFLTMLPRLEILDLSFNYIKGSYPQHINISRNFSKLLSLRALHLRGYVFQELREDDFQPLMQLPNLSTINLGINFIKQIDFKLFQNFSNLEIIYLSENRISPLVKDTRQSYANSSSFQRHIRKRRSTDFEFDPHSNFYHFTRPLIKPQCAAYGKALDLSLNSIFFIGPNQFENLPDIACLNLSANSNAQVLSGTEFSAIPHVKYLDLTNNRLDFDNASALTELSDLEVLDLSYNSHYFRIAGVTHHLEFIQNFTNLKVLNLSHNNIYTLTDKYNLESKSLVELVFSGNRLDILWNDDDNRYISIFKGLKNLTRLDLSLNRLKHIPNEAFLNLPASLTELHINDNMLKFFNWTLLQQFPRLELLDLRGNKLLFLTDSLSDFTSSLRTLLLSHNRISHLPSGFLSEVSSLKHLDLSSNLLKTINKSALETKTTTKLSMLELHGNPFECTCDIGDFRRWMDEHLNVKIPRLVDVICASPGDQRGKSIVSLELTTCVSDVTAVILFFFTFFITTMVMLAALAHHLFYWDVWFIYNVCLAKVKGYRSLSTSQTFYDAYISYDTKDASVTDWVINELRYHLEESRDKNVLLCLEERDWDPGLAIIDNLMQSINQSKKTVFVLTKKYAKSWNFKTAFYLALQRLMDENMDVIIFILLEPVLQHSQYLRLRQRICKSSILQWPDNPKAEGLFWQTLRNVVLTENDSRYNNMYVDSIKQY
In words: In vitro human TLR8 binding reporter assay (HEK-Blue, NF-kB/AP1-inducible SEAP). The format is cell-based. The settings on record: HEK-Blue human TLR8 SEAP reporter cells; activity range classes; read-out: TLR8 Agonist EC50. The method, boiled down: (§1)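 HEK-Blue cells expressing human TLR7 or TLR8 with NF-kB/AP1-inducible SEAP reporter, plated 24 h, then compound-treated 18 h at 37° C, 5% CO2. EC50 normalized to 100% Ymax set by 50 μM reference standard.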
Background: A reporter such as luciferase makes a cellular process visible.

A further experiment has as its target T2, human TLR7 (Homo sapiens, UniProt Q9NYK1).
T2 construct: host or cells: human HEK-Blue cells (HEK293-derived) co-expressing TLR7 and an NF-kB/AP1-inducible SEAP reporter
T2 sequence (Q9NYK1 27-1049): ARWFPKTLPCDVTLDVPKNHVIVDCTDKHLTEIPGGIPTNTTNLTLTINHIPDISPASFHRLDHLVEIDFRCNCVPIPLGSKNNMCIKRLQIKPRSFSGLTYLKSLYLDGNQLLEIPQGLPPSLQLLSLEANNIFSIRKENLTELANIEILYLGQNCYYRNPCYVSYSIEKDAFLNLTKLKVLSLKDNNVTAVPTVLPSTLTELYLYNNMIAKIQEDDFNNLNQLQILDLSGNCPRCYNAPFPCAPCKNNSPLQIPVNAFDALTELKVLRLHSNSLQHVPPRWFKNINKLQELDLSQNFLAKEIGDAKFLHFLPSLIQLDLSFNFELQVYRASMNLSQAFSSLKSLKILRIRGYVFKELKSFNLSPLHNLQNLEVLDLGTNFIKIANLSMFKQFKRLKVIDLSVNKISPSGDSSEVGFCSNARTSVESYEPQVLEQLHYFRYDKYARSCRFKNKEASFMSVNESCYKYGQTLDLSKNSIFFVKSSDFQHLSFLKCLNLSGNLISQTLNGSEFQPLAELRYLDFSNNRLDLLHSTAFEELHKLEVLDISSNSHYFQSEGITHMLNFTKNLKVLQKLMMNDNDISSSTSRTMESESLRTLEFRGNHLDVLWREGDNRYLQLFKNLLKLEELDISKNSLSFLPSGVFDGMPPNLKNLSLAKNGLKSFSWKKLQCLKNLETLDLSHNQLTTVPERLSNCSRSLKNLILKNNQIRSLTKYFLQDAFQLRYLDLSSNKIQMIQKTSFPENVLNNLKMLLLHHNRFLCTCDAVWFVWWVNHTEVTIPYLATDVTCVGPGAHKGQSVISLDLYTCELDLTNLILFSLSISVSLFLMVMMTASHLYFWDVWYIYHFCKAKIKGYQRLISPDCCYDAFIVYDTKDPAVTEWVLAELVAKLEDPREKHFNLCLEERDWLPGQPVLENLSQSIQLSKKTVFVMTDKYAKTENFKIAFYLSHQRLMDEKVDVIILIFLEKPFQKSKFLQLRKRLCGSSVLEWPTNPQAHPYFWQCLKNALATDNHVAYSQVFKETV
Description: In vitro human TLR7 binding reporter assay (HEK-Blue, NF-kB/AP1-inducible SEAP). The format is cell-based. The settings on record: HEK-Blue human TLR7 SEAP reporter cells; activity range classes; read-out: TLR7 Agonist EC50. The gist of the method: as §1

The subject of experiment [1] is IL-1β production in PMA-differentiated THP-1 cells. In words: Measurement of IL-1β production in PMA-differentiated THP-1 cells (ELISA, 4 hours). The experiment is classed as cell-based, human. The settings on record: assayed using one or more of the described procedures, read-out: NLRP3 hIL1B IC50. The method, boiled down: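 IL-1β released into supernatant was measured by ELISA after a 4-hour compound exposure (final DMSO 1%, concentrations such as 100 down to 0.1 μM). Cells: THP-1 pretreated 24 h with 10 μg/ml PMA, then trypsinized and seeded at 1×10^6/ml in 2% FBS RPMI.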

The mark [2] stands for this setting: Homo sapiens, THP-1, human IL-1β production.

Like-named read-outs stand apart in the source and are kept apart here.

The EC50 is the midpoint of the concentration-response curve. In general, IC50 refers to the concentration that gives 50% inhibition.

As for `Nc1cc(O[C@H]2CCNC2=O)c2ccc(-c3ccn[nH]3)cc2n1` [Compound 199], the EC50 on human TLR8 and on human TLR7 was greater than 100 µM each time. The IC50 in experiment [1] (setting [2]) came out at 13.3 µM.

`CS(=O)(=O)CCNc1cc(N)nc2cc(-n3cccn3)ccc12` [Compound 305]: the concentration giving a half-maximal response (EC50) on human TLR8 and at human TLR7 was greater than 100 µM in each case. Further, the half-maximal inhibitory concentration (IC50) in experiment [1] (setting [2]) is 0.64 µM.

As for `Nc1cc(NC(CO)CO)c2ccc(-c3ccn[nH]3)cc2n1` [Compound 315, 2-((2-amino-7-(1H-pyrazol-5-yl)quinolin-4-yl)amino)propane-1,3-diol], the EC50 on human TLR8 and on human TLR7 was greater than 100 µM each time. In addition, in experiment [1] (setting [2]), the IC50 turned out to be 1.52 µM.

Turning to `Nc1nc2cc(-c3ccn[nH]3)ccc2cc1C(=O)Nc1cccnc1` [Compound 124], the half-maximal effective concentration (EC50) at human TLR8 and on human TLR7 was greater than 100 µM in each case. For the same compound, the IC50 in experiment [1] (setting [2]) was determined as 14.5 µM.

For the compound `Nc1cc(N[C@H]2CCCC[C@H]2O)c2ccc(-c3ccn[nH]3)cc2n1` [Compound 250], the EC50 at human TLR8 and on human TLR7 was greater than 100 µM each time. Besides, the IC50 in experiment [1] (human IL-1β production) came to 1.72 µM.

As to `Nc1cc(NCc2cn[nH]c2)c2ccc(-c3ccn[nH]3)cc2n1` [Compound 228], the EC50 at human TLR8 and on human TLR7 was greater than 100 µM each time. Further, in experiment [1] (setting [2]), the IC50 amounted to 0.16 µM.

As for `CCN(CC)CCNc1cc(N)nc2cc(-c3ccn[nH]3)ccc12` [Compound 170], the EC50 on human TLR8 and on human TLR7 was greater than 100 µM each time. The IC50 in experiment [1] (setting [2]) came to 5.82 µM.

For `Nc1cc(N2CCCC(CO)C2)c2ccc(-c3ccn[nH]3)cc2n1` (stereo not drawn) [Compound 274], the EC50 on human TLR8 and on human TLR7 was greater than 100 µM each time. The concentration for half-maximal inhibition (IC50) in experiment [1] (setting [2]) is 1.98 µM.

For `Nc1cc(OCCc2ccsc2)c2ccc(-c3ccsc3)cc2n1` [Compound 331], the EC50 at human TLR8 and on human TLR7 was greater than 100 µM throughout. Further, the IC50 in experiment [1] (setting [2]) came out at 14.6 µM.

`Nc1cc(NCC(O)c2ccccn2)c2ccc(-c3ccn[nH]3)cc2n1` (stereo not drawn) [Compound 155]: the half-maximal effective concentration (EC50) at human TLR8 and on human TLR7 was greater than 100 µM in each case. Further, the IC50 in experiment [1] (setting [2]) is 0.42 µM.

Consider `CN(CCO)c1cc(N)nc2cc(-c3ccn[nH]3)ccc12` [Compound 136], for which the EC50 at human TLR8 and at human TLR7 was greater than 100 µM in each case. The concentration for half-maximal inhibition (IC50) in experiment [1] (setting [2]) worked out at 3.02 µM.

Take `Nc1cc(NC2CCCCC2)c2ccc(-c3ccn[nH]3)cc2n1` [Compound 281]: the EC50 on human TLR8 and at human TLR7 was greater than 100 µM each time. In experiment [1] (setting [2]), the IC50 stood at 0.58 µM.

With `Nc1cc(NCCO)c2ccc(-c3cc[nH]n3)cc2n1` [Compound 169], the EC50 at human TLR8 and on human TLR7 was greater than 100 µM throughout. In experiment [1] (setting [2]), the half-maximal inhibitory concentration (IC50) is 1.37 µM.

For `Nc1cc(NCc2cnc[nH]2)c2ccc(-c3ccn[nH]3)cc2n1` [Compound 159], the 50% effective concentration (EC50) on human TLR8 and on human TLR7 was greater than 100 µM each time. Also, the IC50 in experiment [1] (setting [2]) was found to be 0.52 µM.

For `C[C@@H](CO)Nc1cc(N)nc2cc(-c3ccn[nH]3)ccc12` [Compound 165], the EC50 on human TLR8 and at human TLR7 was greater than 100 µM throughout. The IC50 in experiment [1] (setting [2]) came to 0.47 µM.

On to `Nc1cc(N[C@H]2C[C@H](O)C2)c2ccc(-c3ccn[nH]3)cc2n1` [Compound 233], for which the EC50 at human TLR8 and on human TLR7 was greater than 100 µM each time. The IC50 in experiment [1] (setting [2]) was found to be 0.09 µM.

`CS(=O)(=O)NCCNc1cc(N)nc2cc(-c3ccn[nH]3)ccc12` [Compound 206, N-(2-((2-amino-7-(1H-pyrazol-5-yl)quinolin-4-yl)amino)ethyl)methanesulfonamide]: the EC50 on human TLR8 and at human TLR7 was greater than 100 µM throughout. For the same compound, in experiment [1] (setting [2]), the IC50 amounted to 0.84 µM.

With `Cc1nc(CNc2cc(N)nc3cc(-n4cccn4)ccc23)cs1` [Compound 303], the EC50 on human TLR8 and at human TLR7 was greater than 100 µM in each case. In addition, the 50% inhibitory concentration (IC50) in experiment [1] (setting [2]) was found to be 0.14 µM.

For the compound `COCCNc1cc(N)nc2cc(-c3ccn[nH]3)ccc12` [Compound 255], the EC50 on human TLR8 and at human TLR7 was greater than 100 µM each time. In experiment [1] (setting [2]), the IC50 amounted to 0.27 µM.

Regarding `CS(=O)(=O)NCCCNc1cc(N)nc2cc(-c3ccn[nH]3)ccc12` [Compound 215, N-(3-((2-amino-7-(1H-pyrazol-5-yl)quinolin-4-yl)amino)propyl)methanesulfonamide], the half-maximal effective concentration (EC50) on human TLR8 and on human TLR7 was greater than 100 µM throughout. Besides, the IC50 in experiment [1] (setting [2]) came out at 1.94 µM.

Regarding `Nc1cc(N2CCOCC2)c2ccc(-c3ccn[nH]3)cc2n1` [Compound 131], the concentration for a half-maximal effect (EC50) on human TLR8 and at human TLR7 was greater than 100 µM in each case. The 50% inhibitory concentration (IC50) in experiment [1] (setting [2]) was determined as 0.85 µM.

Consider `CC(=O)NCCCNc1cc(N)nc2cc(-c3ccn[nH]3)ccc12` [Compound 213, N-(3-((2-amino-7-(1H-pyrazol-5-yl)quinolin-4-yl)amino)propyl)acetamide, 2TFA], for which the EC50 on human TLR8 and on human TLR7 was greater than 100 µM in each case. Moreover, in experiment [1] (setting [2]), the IC50 stood at 1.55 µM.

`Nc1cc(NCCCO)c2cc(F)c(-c3ccn[nH]3)cc2n1` [Compound 318, 3-((2-amino-6-fluoro-7-(1H-pyrazol-5-yl)quinolin-4-yl)amino)propan-1-ol]: the EC50 on human TLR8 and at human TLR7 was greater than 100 µM in each case. In experiment [1] (setting [2]), the IC50 amounted to 0.07 µM.

For the compound `Cc1nc[nH]c1CNc1cc(N)nc2cc(-c3ccn[nH]3)ccc12` [Compound 237], the EC50 at human TLR8 and on human TLR7 was greater than 100 µM in each case. Moreover, in experiment [1] (setting [2]), the 50% inhibitory concentration (IC50) worked out at 2.57 µM.

Consider `COCC(O)CNc1cc(N)nc2cc(-c3ccn[nH]3)ccc12` (stereo not drawn) [Compound 254], for which the EC50 on human TLR8 and on human TLR7 was greater than 100 µM throughout. Moreover, the concentration for half-maximal inhibition (IC50) in experiment [1] (setting [2]) worked out at 0.21 µM.

`CN(C)C(=O)CCNc1cc(N)nc2cc(-c3ccn[nH]3)ccc12` [Compound 138]: the EC50 is greater than 100 µM at human TLR8 and 1 to 20 µM on human TLR7. The 50% inhibitory concentration (IC50) in experiment [1] (setting [2]) stood at 5.95 µM.

Take `Nc1cc(NCc2cncs2)c2ccc(-c3ccn[nH]3)cc2n1` [Compound 244]: the EC50 on human TLR8 and at human TLR7 was greater than 100 µM each time. In experiment [1] (setting [2]), the IC50 turned out to be 0.35 µM.
